Experimental data from patent US11731986B2 (Sanford Burnham Prebys Medical Discovery Institute, priority 2017, dated 2023).

molecular target: T1, human LMPTP-A (Homo sapiens, UniProt P24666); experiment: Enzyme Assay of Inhibition of LMPTP-A (phosphatase assay, OMFP or pNPP substrate); type: biochemical; conditions: Bis-Tris pH 6.0, 37° C.
T1 sequence (P24666 1-158): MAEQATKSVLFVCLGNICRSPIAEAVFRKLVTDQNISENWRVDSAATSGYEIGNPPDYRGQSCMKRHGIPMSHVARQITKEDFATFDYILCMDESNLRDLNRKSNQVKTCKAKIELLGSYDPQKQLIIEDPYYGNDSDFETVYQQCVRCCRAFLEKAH
Protocol: Phosphatase assays were performed in buffer containing 50 mM Bis-Tris, pH 6.0, 1 mM DTT and 0.01% Triton X-100 at 37° C. For assays conducted with 3-O-methylfluorescein phosphate (OMFP) as substrate, fluorescence was monitored continuously at λex=485 and λem=525 nm. For assays conducted with para-nitrophenylphosphate (pNPP) as substrate, the reaction was stopped by addition of 2× reaction volume of 1 M NaOH, and absorbance was measured at 405 nm. IC50 values of compounds of Formula (I), (II), (III), or (IV) were determined from plots of inhibitor concentration versus percentage of enzyme activity. For inhibitor selectivity assays, each PTP was incubated with either 0.4 mM OMFP or 5 mM pNPP in the presence of 40 μM compound or DMSO. […] For the inhibitor reversibility assay, 50 nM human LMPTP-A was pre-incubated with 10 μM of compound of Formula (I), (II), (III), or (IV) or DMSO for 5 min. The enzyme was diluted 100× in phosphatase assay buffer containing 0.4 mM OMFP and fluorescence was measured at the indicated time points.

| Structure (SMILES) | IC50 [nM] |
| --- | --- |
| CNc1cc(-c2ccc3c(c2)cc(C(N)=O)n3C)nc2ccncc12 [1-methyl-5-(4-(methylamino)-1,6-naphthyridin-2-yl)-1H-indole-2-carboxamide] | 1000 to 20000 |
| CN1CCC(NC(=O)c2cc3cc(-c4cc(NCc5ccc(CN6CCCCC6)cc5)c5cnccc5n4)ccc3n2C)CC1 [1-methyl-N-(1-methylpiperidin-4-yl)-5-(4-(4-(piperidin-1-ylmethyl)benzylamino)-1,6-naphthyridin-2-yl)-1H-indole-2-carboxamide] | ≤ 1000 |
| CN1CCC(CCNC(=O)/C=C/c2ccc(-c3cc(NCCCN4CCCCC4)c4cnccc4n3)cc2)CC1 [(E)-N-(2-(1-Methylpiperidin-4-yl)ethyl)-3-(4-(4-(3-(piperidin-1-yl)propylamino)-1,6-naphthyridin-2-yl)phenyl)acrylamide] | ≤ 1000 |
| CCN(CC)C(=O)c1nc2cc(-c3cc(NCCCN4CCCCC4)c4cnccc4n3)ccc2[nH]1 [N,N-diethyl-5-(4-((3-(piperidin-1-yl)propyl)amino)-1,6-naphthyridin-2-yl)-1H-benzo[d]imidazole-2-carboxamide] | 1000 to 20000 |
| O=C(NCCCN1CCCCC1)c1nc2cc(-c3cc(NCCCN4CCCCC4)c4cnccc4n3)ccc2[nH]1 [N-(3-(piperidin-1-yl)propyl)-5-(4-((3-(piperidin-1-yl)propyl)amino)-1,6-naphthyridin-2-yl)-1H-benzo[d]imidazole-2-carboxamide] | ≤ 1000 |
| CN1CCC(CNC(=O)c2cc3cc(-c4cc(NC5CCN(C)CC5)c5cnccc5n4)ccc3n2C)CC1 [1-Methyl-5-(4-((1-methylpiperidin-4-yl)amino)-1,6-naphthyridin-2-yl)-N-((1-methylpiperidin-4-yl)methyl)-1H-indole-2-carboxamide] | ≤ 1000 |
| CN1CCN(CCCNC(=O)c2cc3cc(-c4cc(NCCCN5CCCCC5)c5cnccc5n4)ccc3n2C)CC1 [1-methyl-N-(3-(4-methylpiperazin-1-yl)propyl)-5-(4-((3-(piperidin-1-yl)propyl)amino)-1,6-naphthyridin-2-yl)-1H-indole-2-carboxamide] | ≤ 1000 |
| O=C(c1nc2cc(-c3cc(NCCCN4CCCCC4)c4cnccc4n3)ccc2[nH]1)N1CCNCC1 | ≤ 1000 |
| CN1CCC(CCNC(=O)CCc2ccc(-c3cc(NCCCN4CCCCC4)c4cnccc4n3)cc2)CC1 [N-(2-(1-Methylpiperidin-4-yl)ethyl)-3-(4-(4-(3-(piperidin-1-yl)propylamino)-1,6-naphthyridin-2-yl)phenyl)propanamide] | ≤ 1000 |
| CN1CCC(NC(=O)c2cc3cc(-c4cc(OCCCN5CCCCC5)c5cnccc5n4)ccc3n2C)CC1 [1-methyl-N-(1-methylpiperidin-4-yl)-5-(4-(3-(piperidin-1-yl)propoxy)-1,6-naphthyridin-2-yl)-1H-indole-2-carboxamide] | 1000 to 20000 |
| CCN(CC)C(=O)c1cc2ccc(-c3cc(NCCCN4CCCCC4)c4cnccc4n3)cc2s1 [N,N-diethyl-6-(4-(3-(piperidin-1-yl)propylamino)-1,6-naphthyridin-2-yl)benzo[b]thiophene-2-carboxamide] | ≤ 1000 |
| CCN(CC)C(=O)c1ccc(-c2cc(NC3CCNC3)c3cnccc3n2)cc1 (stereo not drawn) [N,N-diethyl-4-(4-(pyrrolidin-3-ylamino)-1,6-naphthyridin-2-yl)benzamide] | 1000 to 20000 |
| Cn1c(C(=O)NC2CCNCC2)cc2cc(-c3cc(NCCCN4CCCCC4)c4cnccc4n3)ccc21 [1-methyl-5-(4-((3-(piperidin-1-yl)propyl)amino)-1,6-naphthyridin-2-yl)-N-(piperidin-4-yl)-1H-indole-2-carboxamide] | ≤ 1000 |
| CCN(CC)C(=O)c1ccc(-c2cc(NCCCN3CCCCC3)c3cnccc3n2)cc1 [N,N-diethyl-4-(4-(3-(piperidin-1-yl)propylamino)-1,6-naphthyridin-2-yl)benzamide] | ≤ 1000 |
| CN1CCC(NC(=O)c2ccc(-c3cc(NCCCN4CCCCC4)c4cnccc4n3)c(C#N)c2)CC1 [3-cyano-N-(1-methylpiperidin-4-yl)-4-(4-((3-(piperidin-1-yl)propyl)amino)-1,6-naphthyridin-2-yl)benzamide] | 1000 to 20000 |
| CN1CCN(CCCNC(=O)c2nc3cc(-c4cc(NCCCN5CCCCC5)c5cnccc5n4)ccc3[nH]2)CC1 [N-(3-(4-methylpiperazin-1-yl)propyl)-5-(4-((3-(piperidin-1-yl)propyl)amino)-1,6-naphthyridin-2-yl)-1H-benzo[d]imidazole-2-carboxamide] | ≤ 1000 |
| O=C(NCCCN1CCCCC1)c1ccc(-c2cc(NCc3ccncc3)c3cnccc3n2)cc1 [N-(3-(Piperidin-1-yl)propyl)-4-(4-((pyridin-4-ylmethyl)amino)-1,6-naphthyridin-2-yl)benzamide] | 1000 to 20000 |
| CCN(CC)C(=O)/C=C/c1ccc(-c2cc(NCCCN3CCCCC3)c3cnccc3n2)o1 [(E)-N,N-Diethyl-3-(5-(4-((3-(piperidin-1-yl)propyl)amino)-1,6-naphthyridin-2-yl)furan-2-yl)acrylamide] | 1000 to 20000 |

More lines, now with the values ahead:

| IC50 [nM] | Structure (SMILES) |
| --- | --- |
| ≤ 1000 | CN1CCC(CNC(=O)CCc2ccc(-c3cc(NCCCN4CCCCC4)c4cnccc4n3)cc2)CC1 [N-((1-Methylpiperidin-4-yl)methyl)-3-(4-(4-(3-(piperidin-1-yl)propylamino)-1,6-naphthyridin-2-yl)phenyl)propanamide] |
| ≤ 1000 | CN1CCC(CNC(=O)c2cc3cc(-c4cc(NCc5ccc(CN6CCCCC6)cc5)c5cnccc5n4)ccc3n2C)CC1 [1-methyl-N-((1-methylpiperidin-4-yl)methyl)-5-(4-(4-(piperidin-1-ylmethyl)benzylamino)-1,6-naphthyridin-2-yl)-1H-indole-2-carboxamide] |
| 1000 to 20000 | CCN(CC)C(=O)c1ccc(-c2cc(NCCCN3CCCCC3)c3cnccc3n2)c(C#N)c1 [3-cyano-N,N-diethyl-4-(4-((3-(piperidin-1-yl)propyl)amino)-1,6-naphthyridin-2-yl)benzamide] |
| 1000 to 20000 | CN1CCC(NC(=O)/C=C/c2ccc(-c3cc(NCCCN4CCCCC4)c4cnccc4n3)s2)CC1 [(E)-N-(1-Methylpiperidin-4-yl)-3-(5-(4-(3-(piperidin-1-yl)propylamino)-1,6-naphthyridin-2-yl)thiophen-2-yl)acrylamide] |
| ≤ 1000 | CN(C)CCNC(=O)c1nc2cc(-c3cc(NCCCN4CCCCC4)c4cnccc4n3)ccc2[nH]1 [N-(2-(dimethylamino)ethyl)-5-(4-(3-(piperidin-1-yl)propylamino)-1,6-naphthyridin-2-yl)-1H-benzo[d]imidazole-2-carboxamide] |
| ≥ 20000 | CN1CCC(NC(=O)/C=C/c2ccc(-c3cc(NCCCN4CCCCC4)c4cnccc4n3)o2)CC1 [(E)-N-(1-Methylpiperidin-4-yl)-3-(5-(4-((3-(piperidin-1-yl)propyl)amino)-1,6-naphthyridin-2-yl)furan-2-yl)acrylamide] |
| ≤ 1000 | CN(C)CCNC(=O)c1ccc(-c2cc(NCCCN3CCCCC3)c3cnccc3n2)cc1 [N-(2-(dimethylamino)ethyl)-4-(4-((3-(piperidin-1-yl)propyl)amino)-1,6-naphthyridin-2-yl)benzamide] |
| ≤ 1000 | Cn1c(C(=O)NC2CCNCC2)cc2cc(-c3cc(NCc4ccc(CN5CCCCC5)cc4)c4cnccc4n3)ccc21 [1-methyl-5-(4-(4-(piperidin-1-ylmethyl)benzylamino)-1,6-naphthyridin-2-yl)-N-(piperidin-4-yl)-1H-indole-2-carboxamide] |
| ≥ 20000 | CCN(CC)C(=O)c1ccc(-c2cc(NCCCN3CCCCC3)c3ccncc3n2)cc1 [N,N-diethyl-4-(4-(3-(piperidin-1-yl)propylamino)-1,7-naphthyridin-2-yl)benzamide] |
